Reference: patent publication US20250257059A1, “PROTEIN TYROSINE PHOSPHATASE INHIBITORS AND USES THEREOF” (Nerio Therapeutics, Inc., priority 2022, published 2025)
pIC50: −log10 of the molar value. Read-outs that look alike come from different tables or passages of the source.

Experiments:
[1] = test system: murine B16F10 melanoma cell line; assay: B16F10 IFNγ-induced cellular growth inhibition assay (xCELLigence RTCA); type: cell-based; conditions: B16F10 cells, 1 ng/mL mouse IFNγ, AUC of growth curve, read-out: B16 IFNγ Mediated Growth Inhibition Assay: AVG IC50
Procedure: Compound activity was determined using an interferon gamma (IFNγ)-induced cellular growth inhibition assay with the murine B16F10 melanoma cell line on an Agilent xCELLigence Real-Time Cell Analysis platform (RTCA). RTCA E-Plate View 96 plates (Agilent, 300601010) were pre-equilibrated with 50 μL of assay media (DMEM+10% FBS, Gibco 10566-024, Gibco 10082-147) at 37° C. in a humidified incubator before taking an initial measurement of impedance (sweep). B16F10 cells cultured in assay media were dissociated with TrypLE Express (Gibco 12605-010) for five minutes at 37° C., diluted in 3 volumes of assay buffer, centrifuged for 5 minutes at 500×g at room temperature before diluting cells to 7,700 cells/mL in assay media, plating 130 μL/well (1,000 cells/well) in the inner 60 wells of the assay plate, and adding 150 μL of assay media to the outer wells of the plate. Cells were incubated at room temperature for 20 min to allow cells to settle before placing them in the xCELLigence reader and incubating overnight at 37° C., sweeping wells every 15 minutes. After 24 hours, well readings were paused, plates were removed from the incubator and compounds were added using a Tecan D300e dispenser. All wells were normalized to a final concentration of 0.5% DMSO. Following a 30 min incubation at 37° C., recombinant mouse IFNγ (R&D Systems™ 485MI100) was diluted to 10 ng/mL in assay media and 20 μL was added to assay wells (1 ng/mL final concentration). Assay plates were placed in the xCELLigence reader and swept every 15 minutes.

[2] = biological target: full-length human PTPN2 (TC45) (1-387) (Homo sapiens (Human), UniProt P17706); assay: Enzymatic assay used to determine potency of PTPN2 inhibitors (full length PTPN2 DiFMUP assay); type: biochemical; conditions: 0.5 nM PTPN2, 100 μM DiFMUP, 30 min at room temperature
Procedure: Compound activity was determined in an in vitro enzymatic assay using untagged, full-length human PTPN2 (TC45) (1-387) protein. PTPN2 was produced in E. coli as a GST-TEV fusion and the GST was removed by TEV digestion, followed by additional purification to yield full-length PTPN2 (SEQ ID 1). PTPN2 enzyme was diluted in assay buffer (50 mM HEPES pH7.5, 0.2 mM EDTA, 1 mM DTT, 0.02% Brij-35, 0.02% BSA) to a final concentration of 0.5 nM and added to black 384-well non-binding plates (Greiner, 781900). Compounds were subsequently added using a Tecan D300e dispenser. Following a 10 min incubation at room temperature, DiFMUP substrate (ThermoFisher, D22065) was added to a final concentration of 100 μM. Plates were transferred to a SpectraMax plate reader (Molecular Devices) and fluorescence intensity was measured (ex 358, em 455) after a 30 min incubation at room temperature. […] A four-parameter curve fit was used to determine IC50 values from % inhibition data.

Sequence of full-length human PTPN2 (TC45) (1-387) (P17706 other isoform, or with tags, fused parts or gaps): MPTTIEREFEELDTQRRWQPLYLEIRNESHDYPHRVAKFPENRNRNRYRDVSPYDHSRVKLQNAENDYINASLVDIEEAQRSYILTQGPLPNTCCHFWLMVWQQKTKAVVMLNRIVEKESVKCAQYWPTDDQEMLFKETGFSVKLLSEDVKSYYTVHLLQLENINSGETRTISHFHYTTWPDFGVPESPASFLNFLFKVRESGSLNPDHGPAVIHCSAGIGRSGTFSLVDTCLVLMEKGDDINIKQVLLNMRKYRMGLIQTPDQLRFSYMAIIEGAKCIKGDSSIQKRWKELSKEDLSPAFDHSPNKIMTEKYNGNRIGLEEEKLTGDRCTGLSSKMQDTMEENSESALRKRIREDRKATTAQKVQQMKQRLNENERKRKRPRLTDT

| pIC50 ([1]; Mus musculus, B16-F10, 48 h) | Structure (SMILES) | pIC50 [2] | pIC50 ([1]; 48 hours) |
| --- | --- | --- | --- |
| 4.33 | O=C1CN(c2c(O)cc(CC3CCCN(CC4CC4)C3)cc2F)S(=O)(=O)N1 (stereo not shown) [Example 37] | 7.18 | – |
| < 4.89 | CCC1CNCC1Cc1cc(O)c(N2CC(=O)NS2(=O)=O)c(F)c1 (stereo not shown) [Example 30] | 7.89 | – |
| 5.58 | CC(C)(C)CN1CCC(Cc2cc(O)c(N3CC(=O)NS3(=O)=O)c(F)c2)C1 (stereo not shown) [Example 20] | 7.82 | – |
| < 4.00 | CCCCN1CCCC(Cc2cc(O)c(N3CC(=O)NS3(=O)=O)c(F)c2)C1 (stereo not shown) [Example 38] | 6.81 | – |
| – | O=C1CN(c2c(O)cc(CC3CCN(CC4CC4)C3)cc2F)S(=O)(=O)N1 (stereo not shown) [Example 10] | 7.30 | 4.76 |
| 6.52 | CCC1CCN(CCc2cc(O)c(N3CC(=O)NS3(=O)=O)c(F)c2)C1 (stereo not shown) [Example 87] | 8.52 | – |
| 6.66 | O=C1CN(c2c(O)cc(CCN3CCC4(CCC4)CC3)cc2F)S(=O)(=O)N1 [Example 105] | 8.52 | – |
| 6.11 | CCC1CN(CCc2cc(O)c(N3CC(=O)NS3(=O)=O)c(F)c2)C1 [Example 126] | 8.52 | – |
| 6.48 | CC(C)CC1CCN(CCc2cc(O)c(N3CC(=O)NS3(=O)=O)c(F)c2)C1 (stereo not shown) [Example 85] | 8.70 | – |
| 6.17 | O=C1CN(c2c(O)cc(CCN3CCCC3)cc2F)S(=O)(=O)N1 [Example 83, 5-(2-fluoro-6-hydroxy-4-(2-(pyrrolidin-1-yl)ethyl)phenyl)-1,2,5-thiadiazolidin-3-one 1,1-dioxide] | 8.52 | – |
| < 4.00 | CC(C)CCN1CCC(CCc2cc(O)c(N3CC(=O)NS3(=O)=O)c(F)c2)C1 (stereo not shown) [Example 64] | 7.05 | – |
| 5.23 | CCCCCN1CCC(Cc2cc(O)c(N3CC(=O)NS3(=O)=O)c(F)c2)C1 (stereo not shown) [Example 24] | 7.82 | – |
| 6.19 | CCCC1CCN(CCc2cc(O)c(N3CC(=O)NS3(=O)=O)c(F)c2)C1 (stereo not shown) [Example 86] | 8.40 | – |
| 4.29 | O=C1CN(c2c(O)cc(CCN3CCNCC3)cc2F)S(=O)(=O)N1 [Example 100] | 8.30 | – |
| < 4.00 | O=C1CN(c2c(O)cc(CC3CCN(Cc4ncco4)C3)cc2F)S(=O)(=O)N1 (stereo not shown) [Example 6] | 7.70 | – |
| 4.45 | O=C1CN(c2c(O)cc(CC3CCN(Cc4cocn4)C3)cc2F)S(=O)(=O)N1 (stereo not shown) [Example 16] | 7.80 | – |
| – | CC(C)C1CN(CCc2cc(O)c(N3CC(=O)NS3(=O)=O)c(F)c2)C1 [Example 132] | 8.52 | 6.24 |
| 4.07 | O=C1CN(c2c(O)cc(CC3CCN(CCN4CCCCC4)C3)cc2F)S(=O)(=O)N1 (stereo not shown) [Example 5] | 8.15 | – |

| pIC50 ([1]; Mus musculus, B16-F10, 48 h) | Structure (SMILES) | pIC50 [2] | pIC50 ([1]; 48 hours) |
| --- | --- | --- | --- |
| 4.86 | CCC1CCCN1CCc1cc(O)c(N2CC(=O)NS2(=O)=O)c(F)c1 (stereo not shown) [Example 84, 5-(4-(2-(2-ethylpyrrolidin-1-yl)ethyl)-2-fluoro-6-hydroxyphenyl)-1,2,5-thiadiazolidin-3-one 1,1-dioxide] | 7.89 | – |
| 5.51 | CCC1CCN(CCc2cc(O)c(N3CC(=O)NS3(=O)=O)c(F)c2)CC1 [Example 125] | 8.70 | – |
| 6.59 | CC1(F)CCN(CCc2cc(O)c(N3CC(=O)NS3(=O)=O)c(F)c2)C1 (stereo not shown) [Example 106] | 8.70 | – |
| 6.17 | O=C1CN(c2c(O)cc(CCN3CCC(C(F)(F)F)C3)cc2F)S(=O)(=O)N1 (stereo not shown) [Example 96] | 8.70 | – |
| 4.53 | CN1CCCC(Cc2cc(O)c(N3CC(=O)NS3(=O)=O)c(F)c2)C1 (stereo not shown) [Example 31, 5-(2-fluoro-6-hydroxy-4-((1-methylpiperidin-3-yl)methyl)phenyl)-1,2,5-thiadiazolidin-3-one 1,1-dioxide] | 7.33 | – |
| < 4.00 | O=C1CN(c2c(O)cc(CC3CCCN(Cc4ccn[nH]4)C3)cc2F)S(=O)(=O)N1 (stereo not shown) [Example 53] | 7.46 | – |
| < 4.35 | CN1CCCCC(Cc2cc(O)c(N3CC(=O)NS3(=O)=O)c(F)c2)C1 (stereo not shown) [Example 56, 5-(2-fluoro-6-hydroxy-4-((1-methylazepan-3-yl)methyl)phenyl)-1,2,5-thiadiazolidin-3-one 1,1-dioxide] | 7.55 | – |
| 4.09 | CCCCCCN1CCCC(Cc2cc(O)c(N3CC(=O)NS3(=O)=O)c(F)c2)C1 (stereo not shown) [Example 36] | 7.66 | – |
| 4.88 | CC(C)CN1CCC(Cc2cc(O)c(N3CC(=O)NS3(=O)=O)c(F)c2)C1 (stereo not shown) [Example 9] | 7.68 | – |
| < 4.00 | O=C1CN(c2c(O)cc(CC3CCCN(Cc4cn[nH]c4)C3)cc2F)S(=O)(=O)N1 (stereo not shown) [Example 42] | 7.92 | – |
| 5.36 | O=C1CN(c2c(O)cc(CC3CCN(Cc4ccoc4)C3)cc2F)S(=O)(=O)N1 (stereo not shown) [Example 12] | 7.92 | – |
| 4.83 | O=C1CN(c2c(O)cc(CC3CCCN(CC4CCC4)C3)cc2F)S(=O)(=O)N1 (stereo not shown) [Example 32] | 7.46 | – |
| 6.33 | O=C1CN(c2c(O)cc(CCN3CC[C@H](F)C3)cc2F)S(=O)(=O)N1 [Example 94] | 8.70 | – |
| 4.55 | CC(C)N1CCC(Cc2cc(O)c(N3CC(=O)NS3(=O)=O)c(F)c2)C1 (stereo not shown) [Example 2] | 7.85 | – |
| 6.18 | CC(C)(C)C1CN(CCc2cc(O)c(N3CC(=O)NS3(=O)=O)c(F)c2)C1 [Example 129] | 8.70 | – |
| 5.37 | O=C1CN(c2c(O)cc(CCC3CCCN3)cc2F)S(=O)(=O)N1 (stereo not shown) [Example 66] | 7.80 | – |
| 6.79 | CC[C@H]1CCN(CCc2cc(O)c(N3CC(=O)NS3(=O)=O)c(F)c2)C1 [Example 109] | 8.52 | – |
